Experimental data published in patent US20080076760A1, “2,3,4,5-TETRAHYDRO-1H-1,5-BENZODIAZEPINE DERIVATIVE AND MEDICINAL COMPOSITION” (priority 2004, published 2008).
pKi: −log10 of the molar value. Like-named read-outs stand apart in the source and are kept apart here.

Tests used:
[1] = target: human vasopressin V2 receptor (Homo sapiens, UniProt P30518); assay: Receptor binding study, [3H]AVP displacement on CHO cell membranes, human V2
Protocol: Preparation of Chinese hamster ovary (Cho) cell which expresses human vasopressin receptor subtype and production of membrane sample of the cell was conducted according to the method of Tahara et al. (Br. J. Pharmacol., 125, 1463-1470, 1998).
(§1) (ii) Receptor Binding Study
In saturation binding experiment, the membrane sample and [^3H]AVP of several concentrations (0.125 nM to 4.0 nM) were mixed and incubated in microplate wells. In displacement experiment, [^3H]AVP of constant concentrations (0.5 nM to 1.0 nM) and the membrane sample were mixed with Compound A of several concentrations, and incubation was performed. Assay was performed using 50 mM of Tris-HCl (pH=7.4) (total amount: 250 μL) (buffer composition: containing […] of MgCl2 and 0.1% BSA), and incubation was performed at room temperature (25° C.) for one hour. After incubation, suck filtration was immediately performed and reaction was completed when the membrane sample was collected on a glass fiber filter fitted with the microplate. After the filter was washed with an ice-cold Tris-HCl buffer (50 mM Tris-HCl, 10 mM MgCl2, pH 7.4), radioactivity measurement was performed. Nonspecific binding was determined using nonradioactive-labeled AVP (1 μM).

[2] = target: human vasopressin V1a receptor (Homo sapiens, UniProt P37288); assay: Receptor binding study, [3H]AVP displacement on CHO cell membranes, human V1a
Protocol: as §1
Assay was performed using 50 mM of Tris-HCl (pH=7.4) (total amount: 250 μL) (buffer composition: containing […] of MgCl2 and 0.1% BSA), and incubation was performed at room temperature (25° C.) for one hour. After incubation, suck filtration was immediately performed and reaction was completed when the membrane sample was collected on a glass fiber filter fitted with the microplate. After the filter was washed with an ice-cold Tris-HCl buffer (50 mM Tris-HCl, 10 mM MgCl2, pH 7.4), radioactivity measurement was performed. Nonspecific binding was determined using nonradioactive-labeled AVP (1 μM).

[3] = [3H]AVP displacement, CHO cell membrane, 25° C., one hour, read-out: Human V2 Ki
[4] = [3H]AVP displacement, CHO cell membrane, 25° C., one hour, read-out: Human V1a Ki

human vasopressin V1a receptor, sequence (P37288 whole entry): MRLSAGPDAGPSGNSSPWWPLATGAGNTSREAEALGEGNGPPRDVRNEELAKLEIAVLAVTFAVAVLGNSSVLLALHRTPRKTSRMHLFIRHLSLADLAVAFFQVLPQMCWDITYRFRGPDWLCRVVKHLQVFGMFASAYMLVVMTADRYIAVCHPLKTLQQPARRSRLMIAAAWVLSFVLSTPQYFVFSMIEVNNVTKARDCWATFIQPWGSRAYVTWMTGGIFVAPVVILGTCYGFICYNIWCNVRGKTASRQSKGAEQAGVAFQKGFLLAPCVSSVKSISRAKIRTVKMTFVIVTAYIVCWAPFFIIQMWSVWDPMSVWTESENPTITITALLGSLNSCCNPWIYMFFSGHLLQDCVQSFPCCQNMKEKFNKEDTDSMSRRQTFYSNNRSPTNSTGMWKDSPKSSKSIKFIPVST
human vasopressin V2 receptor, sequence (P30518 whole entry): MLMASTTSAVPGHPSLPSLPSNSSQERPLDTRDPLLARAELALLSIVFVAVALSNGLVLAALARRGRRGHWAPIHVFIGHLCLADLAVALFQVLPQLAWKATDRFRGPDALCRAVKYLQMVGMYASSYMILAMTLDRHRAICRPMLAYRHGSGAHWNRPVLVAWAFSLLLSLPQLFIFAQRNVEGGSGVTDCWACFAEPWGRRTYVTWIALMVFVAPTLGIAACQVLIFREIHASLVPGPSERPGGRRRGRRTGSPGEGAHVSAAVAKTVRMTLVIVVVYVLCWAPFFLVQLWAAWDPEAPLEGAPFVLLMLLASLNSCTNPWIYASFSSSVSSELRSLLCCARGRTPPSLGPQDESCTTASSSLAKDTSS

| pKi [1, 3] | pKi [2, 4] | SMILES | pKi [1] | pKi [2] |
| --- | --- | --- | --- | --- |
| 8.46 | 9.46 | Cc1ccc2c(c1)NC(C)CCN2C(=O)c1ccc(-c2ccc3[nH]ccc3c2)c(OCCN2CCOCC2)c1 (stereo not drawn) [Example 104, 5-[(4,7-dimethyl-2,3,4,5-tetrahydro-1H-1,5-benzodiazepin-1-yl]carbonyl]-2-(1H-indol-5-yl)phenyl 2-(4-morpholinyl)ethyl ether] | – | – |
| 8.70 | 9.85 | CNc1ccc(-c2ccc(C(=O)N3CC[C@H](C)Nc4ccccc43)cc2OCCCN2C(=O)CNC2=O)cc1 [Example 106, 3-[3-[[4′-(methylamino)-4-[[(4S)-4-methyl-2,3,4,5-tetrahydro-1H-1,5-benzodiazepin-1-yl]carbonyl][1,1′-biphenyl]-2-yl]oxy]propyl]-2,4-imidazolidinedion] | – | – |
| 7.68 | 9.38 | CCCCCN(C)CCCOc1cc(C(=O)N2CC[C@H](C)Nc3ccccc32)ccc1-c1ccc2[nH]ccc2c1 [Example 108, N-[3-[2-(1H-indol-5-yl)-5-[[(4S)-4-methyl-2,3,4,5-tetrahydro-1H-1,5-benzodiazepin-1-yl]carbonyl]phenoxy]propyl]-N-methyl-1-pentaneamine] | – | – |
| 7.74 | 9.66 | CCCCN(C)CCCOc1cc(C(=O)N2CC[C@H](C)Nc3ccccc32)ccc1-c1ccc2[nH]ccc2c1 [Example 114, N-[3-[2-(1H-indol-5-yl)-5-[[(4S)-4-methyl-2,3,4,5-tetrahydro-1H-1,5-benzodiazepin-1-yl]carbonyl]phenoxy]propyl]-N-methyl-1-butaneamine] | – | – |
| 7.70 | 9.43 | CCCCN(CC)CCCOc1cc(C(=O)N2CC[C@H](C)Nc3ccccc32)ccc1-c1ccc2[nH]ccc2c1 [Example 124, N-ethyl-N-[3-[2-(1H-indol-5-yl)-5-[[(4S)-4-methyl-2,3,4,5-tetrahydro-1H-1,5-benzodiazepin-1-yl]carbonyl]phenoxy]propyl]-1-butaneamine] | – | – |
| 8.15 | 9.62 | CCCN(C)CCCCCOc1cc(C(=O)N2CC[C@H](C)Nc3ccccc32)ccc1-c1ccc2[nH]ccc2c1 [Example 126] | – | – |
| 7.11 | 9.68 | CCCN(C)CCCOc1cc(C(=O)N2CC[C@@H](C)Nc3ccccc32)ccc1-c1ccc2[nH]ccc2c1 [Example 127, N-[3-[2-(1H-indol-5-yl)-5-[[(4R)-4-methyl-2,3,4,5-tetrahydro-1H-1,5-benzodiazepin-1-yl)carbonyl]phenoxy]propyl]-N-methyl-N-propylamine] | – | – |
| 7.41 | 9.70 | CCCN1CCN(CCCOc2cc(C(=O)N3CC[C@@H](C)Nc4ccccc43)ccc2-c2ccc3[nH]ccc3c2)CC1 [Example 128, (4R)-1-[4-(1H-indol-5-yl)-3-[3-(4-propyl-1-piperazinyl)propoxy]benzoyl]-4-methyl-2,3,4,5-tetrahydro-1H-1,5-benzodiazepine] | – | – |
| 7.06 | 9.40 | CCCN(C)CCCOc1cc(C(=O)N2CC[C@H](C)Nc3ccccc32)ccc1-c1ccc(NCC)cc1 [Example 129, N-ethyl-2′-[3-[methyl(propyl)amino]propoxy]-4′-[[(4S)-4-methyl-2,3,4,5-tetrahydro-1H-1,5-benzodiazepin-1-yl]carbonyl][1,1′-biphenyl]-4-amine] | – | – |

The next lines start with the molecule.

| SMILES | pKi [1, 3] | pKi [2, 4] | pKi [1] | pKi [2] |
| --- | --- | --- | --- | --- |
| CCCN(C)CCCOc1cc(C(=O)N2CC[C@H](C)Nc3ccccc32)ccc1-c1ccc(NC)cc1 [Example 105, N-methyl-2′-[3-[methyl(propyl)amino]propoxy]-4′-[[(4S)-4-methyl-2,3,4,5-tetrahydro-1H-1,5-benzodiazepin-1-yl]carbonyl][1,1′-biphenyl]-4-amine] | 7.27 | 9.80 | – | – |
| C[C@H]1CCN(C(=O)c2ccc(-c3ccc4[nH]ccc4c3)c(OCCCN3CCC(N4CCOCC4)CC3)c2)c2ccccc2N1 [Example 107, (4S)-1-[4-(1H-indol-5-yl)-3-[3-[4-(4-morpholinyl)-1-piperidinyl]propoxy]benzoyl]-4-methyl-2,3,4,5-tetrahydro-1H-1,5-benzodiazepine] | 7.48 | 9.89 | – | – |
| C[C@H]1CCN(C(=O)c2ccc(-c3ccc4[nH]ccc4c3)c(OCCCN3CCCN(C)CC3)c2)c2ccccc2N1 [Example 109, (4S)-1-[4-(1H-indol-5-yl)-3-[3-(4-methyl-1,4-diazepane-1-yl)propoxy]benzoyl]-4-methyl-2,3,4,5-tetrahydro-1H-1,5-benzodiazepine] | 8.15 | 9.89 | – | – |
| C[C@H]1CCN(C(=O)c2ccc(-c3ccc4[nH]ccc4c3)c(OCCN3CCN(C)CC3)c2)c2ccccc2N1 [Example 110, (4S)-1-[4-(1H-indol-5-yl)-3-[2-(4-methyl-1-piperazinyl)ethoxy]benzoyl]-4-methyl-2,3,4,5-tetrahydro-1H-1,5-benzodiazepine] | 8.19 | 9.89 | – | – |
| C[C@H]1CCN(C(=O)c2ccc(-c3ccc4[nH]ccc4c3)c(OCCCN(C)CCN(C)C)c2)c2ccccc2N1 [Example 112, N1-[3-[2-(1H-indol-5-yl)-5-[[(4S)-4-methyl-2,3,4,5-tetrahydro-1H-1,5-benzodiazepin-1-yl)carbonyl]phenoxy]propyl]-N1,N2,N2-trimethyl-1,2-ethaneamine] | 7.64 | 9.38 | – | – |
| CCCN1CCN(CCCOc2cc(C(=O)N3CC[C@H](C)Nc4ccccc43)ccc2-c2ccc3[nH]ccc3c2)CC1 [Example 113, (4S)-1-[4-(1H-indol-5-yl)-3-[3-(4-propyl-1-piperazinyl)propoxy]benzoyl]-4-methyl-2,3,4,5-tetrahydro-1H-1,5-benzodiazepine] | 8.30 | 9.59 | – | – |
| C[C@@H]1CN(CCCOc2cc(C(=O)N3CC[C@H](C)Nc4ccccc43)ccc2-c2ccc3[nH]ccc3c2)C[C@H](C)O1 [Example 115, (4S)-1-[3-[3-[(2R,6S)-2,6-dimethylmorpholinyl]propoxy]-4-(1H-indol-5-yl)benzoyl]-4-methyl-2,3,4,5-tetrahydro-1H-1,5-benzodiazepine] | 8.31 | 9.57 | – | – |
| CCN(CC)CCCOc1cc(C(=O)N2CC[C@H](C)Nc3ccccc32)ccc1-c1ccc2[nH]ccc2c1 [Example 116, N,N-diethyl-3-[2-(1H-indol-5-yl)-5-[[(4S)-4-methyl-2,3,4,5-tetrahydro-1H-1,5-benzodiazepin-1-yl]carbonyl]phenoxy]-1-propaneamine] | 7.96 | 9.80 | – | – |
| CCCN(C)CCCCOc1cc(C(=O)N2CC[C@H](C)Nc3ccccc32)ccc1-c1ccc2[nH]ccc2c1 [Example 117, N-[4-[2-(1H-indol-5-yl)-5-[[(4S)-4-methyl-2,3,4,5-tetrahydro-1H-1,5-benzodiazepin-1-yl]carbonyl]phenoxy]butyl]-N-methyl-N-propylamine] | – | – | 7.92 | 9.68 |
| CCN(C)CCCOc1cc(C(=O)N2CC[C@H](C)Nc3ccccc32)ccc1-c1ccc2[nH]ccc2c1 [Example 118, N-ethyl-3-[2-(1H-indol-5-yl)-5-[[(4S)-4-methyl-2,3,4,5-tetrahydro-1H-1,5-benzodiazepin-1-yl]carbonyl]phenoxy]-N-methyl-1-propaneamine] | 8.02 | 9.82 | – | – |
| C[C@H]1CCN(C(=O)c2ccc(-c3ccc4[nH]ccc4c3)c(C(=O)OCCCN(C)C)c2)c2ccccc2N1 [Example 120, 3-(dimethylamino)propyl 2-(1H-indol-5-yl)-5-[[(4S)-4-methyl-2,3,4,5-tetrahydro-1H-1,5-benzodiazepin-1-yl]carbonyl]benzoate] | 7.03 | 9.70 | – | – |
| CCCN(C)CCOc1cc(C(=O)N2CC[C@H](C)Nc3ccccc32)ccc1-c1ccc2[nH]ccc2c1 [Example 121, N-[2-[2-(1H-indol-5-yl)-5-[[(4S)-4-methyl-2,3,4,5-tetrahydro-1H-1,5-benzodiazepin-1-yl]carbonyl]phenoxy]ethyl]-N-methyl-1-propaneamine] | 8.00 | 9.85 | – | – |
| CCCCN1CCN(CCCOc2cc(C(=O)N3CC[C@H](C)Nc4ccccc43)ccc2-c2ccc3[nH]ccc3c2)CC1 [Example 122, (4S)-1-[3-[3-(4-butyl-1-piperazinyl)propoxy]-4-(1H-indol-5-yl)benzoyl]-4-methyl-2,3,4,5-tetrahydro-1H-1,5-benzodiazepine] | 8.29 | 9.68 | – | – |
| C[C@H]1CCN(C(=O)c2ccc(-c3ccc4[nH]ccc4c3)c(OCCCN3CCC(N(C)C)CC3)c2)c2ccccc2N1 [Example 123] | 8.00 | 9.42 | – | – |
| CCCN(CC)CCCOc1cc(C(=O)N2CC[C@H](C)Nc3ccccc32)ccc1-c1ccc2[nH]ccc2c1 [Example 125, N-ethyl-3-[2-(1H-indol-5-yl)-5-[[(4S)-4-methyl-2,3,4,5-tetrahydro-1H-1,5-benzodiazepin-1-yl]carbonyl]phenoxy]-N-propyl-1-propaneamine] | 7.82 | 9.74 | – | – |
